Holding throughout (assay type): ADME
Series [1] can be described thus: Stability of the compound in simulated gastric fluid after 24 hrs at 37 degC. The following applies: simulated gi fluid.
Series [2] is described as follows: Passive permeability of the compound by PAMPA assay. To be noted: read-out: permeability. (In general: PAMPA measures passive passage across an artificial lipid membrane.)
Series [3] in a line: Solubility of the compound in fasted simulated intestinal fluid after 4 hrs.

The source of these data is ChEMBL document CHEMBL3351964, “2-Aminopyrimidin-4(1H)-one as the novel bioisostere of urea: discovery of novel and potent CXCR2 antagonists” (Bioorg Med Chem Lett, 2014).

Structures are written as SMILES. In brackets after ≈: the same amount, converted by molar mass.

Regarding `CC(C)S(=O)(=O)c1c(Cl)ccc(Nc2nc(=O)cc(C(C)(C)C)[nH]2)c1O`, the Stability entry in series [1] was “Stable”. Moreover, in series [2], the Papp was 37 ×10⁻⁶ cm/s. Also, the solubility (as a rule, the dissolved amount per volume that the medium holds) at 4 h in series [3] was 33 µg/mL (≈ 82.5 µM).
